Test results reported in patent US8222244B2, “Staurosporine derivatives as inhibitors of FLT3 receptor tyrosine kinase activity” (Novartis AG, priority 2001, dated 2012).
Entries after “also recorded” stand apart in the source; their conditions may differ.

Key:
Ba/F3-FLT3-D835Y cells = settings: in 24-72 hours
Description: (§1) To search for FLT3-targeted compounds, the applicant screened the inhibitory effects of several compounds on two different kinds of assays. • Tyrosine protein kinase assays with purified GST-Flt-3 were carried in a final volume of 30 μL containing 200-1800 ng of enzyme protein. The activity was assayed in the presence or absence of inhibitors, by measuring the incorporation of ^33P from [γ^33P] ATP into appropriate substrates. […] Cell lines expressing two different forms of mutated, activated FLT3 are used: Ba/F3-FLT3-ITD cells expressing a FLT3 mutant with an “Internal Tandem Duplication” (ITD) within the juxtamembrane domain of the receptor. Ba/F3-FLT3-D835Y cells expressing an FLT3 receptor containing a mutation converting […] at position 835 to Tyrosine.
(§2) A cell based assay is utilised to identify inhibitors of mutant FLT3 tyrosine kinase receptors.
(§3) The cell lines used for the initial screening are sublines of Ba/F3 cells that are engineered to express mutant or over-express wild-type (non-mutated) FLT3 following infection with a retrovirus expressing appropriate FLT3 cDNAs. The parent cell line, Ba/F3 is dependent on interleukin-3 for proliferation, and when deprived of IL-3, the cells rapidly cease proliferation and die. The retrovirus expresses FLT3 from the retrovirual LTR and the neo gene from an IRES site.

Ba/F3-FLT3-ITD cells = settings: in 24-72 hours
Description: as §1, §2, §3

[1] = tested on: human leukemia and lymphoma cell lines that did not have mutant FLT3 receptors; assay: Cytotoxicity against leukemia and lymphoma cell lines without mutant FLT3 receptors; assay type: cell-based; settings: at the concentrations required to inhibit the proliferation of FLT3-dependent cell-lines
human Flt-3 = molecular target: T1, human Flt-3 (Homo sapiens, UniProt P36888); assay: Tyrosine protein kinase assay with purified GST-Flt-3 (33P incorporation); assay type: biochemical; settings: at a 1.0 micromolar concentration
T1 construct: expresses the amino acid region amino acids 563-993 of the intra-cytoplasmic kinase domains of human Flt-3; made in house; host or cells: Sf9 insect cells (baculovirus, pFbacG01 donor vector)
T1 sequence (P36888 563-993): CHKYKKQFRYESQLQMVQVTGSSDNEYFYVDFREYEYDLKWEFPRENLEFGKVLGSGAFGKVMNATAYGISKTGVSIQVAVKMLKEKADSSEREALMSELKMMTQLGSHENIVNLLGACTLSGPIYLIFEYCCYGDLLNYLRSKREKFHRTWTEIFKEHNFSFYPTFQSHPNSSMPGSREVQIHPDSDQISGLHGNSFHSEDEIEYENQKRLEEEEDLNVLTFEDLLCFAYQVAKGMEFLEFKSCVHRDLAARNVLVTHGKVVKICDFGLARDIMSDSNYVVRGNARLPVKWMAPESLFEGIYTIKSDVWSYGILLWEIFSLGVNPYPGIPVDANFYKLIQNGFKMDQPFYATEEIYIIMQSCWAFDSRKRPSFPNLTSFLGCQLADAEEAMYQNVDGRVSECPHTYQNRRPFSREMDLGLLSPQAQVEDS
Summary of the method: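 GST-fused Flt-3 cytoplasmic domain, expressed in baculovirus-infected Sf9 cells and purified, phosphorylates substrate with [γ-33P]ATP. Reaction spotted onto PVDF membranes, washed with H3PO4 and ethanol, and incorporated 33P counted by scintillation.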

| Molecule | Flt3 Inhibition (percent inhibition of Flt3 kinase activity) (human Flt-3) [%] | other results |
| --- | --- | --- |
| CO[C@@H]1[C@H](N(C)C(=O)c2ccccc2)C[C@H]2O[C@]1(C)n1c3ccccc3c3c4c(c5c6ccccc6n2c5c31)C(=O)NC4 [MIDOSTAURIN, N-[(9S,10R,11R,13R)-2,3,10,11,12,13-hexahydro-10-methoxy-9-methyl-1-oxo-9,13-epoxy-1H,9H-diindolo[1,2,3-gh:3′,2′,1′-Im]pyrrolo[3,4-j][1,7]benzodiazonin-11-yl]-N-methylbenzamide] |  | G1 cell cycle arrest and apoptosis (Ba/F3-FLT3-D835Y cells): induced both G1 cell cycle arrest and apoptosis; G1 cell cycle arrest and apoptosis (Ba/F3-FLT3-ITD cells): induced both G1 cell cycle arrest and apoptosis; cytotoxicity [1]: not cytotoxic; also recorded: not cytoxic |
| [9S-(9a,10b,11b,13a)]-N-(2,3,10,11,12,13-Hexahydro-10-methoxy-9-methyl-1-oxo-9,13-epoxy-1H,9H-diindolo[1,2,3-gh:3′,2′,1′-lm]pyrrolo[3,4-j][1,7]benzodiazonin-11-yl)-N-methyl-2-[(tetrahydro-2H-pyran-4-yl)oxy]-acetamide [160251-52-5] | 94 |  |
| [9S-(9a,10b,11b,13a)]-[3-[(2,3,10,11,12,13-Hexahydro-10-methoxy-9-methyl-1-oxo-9,13-epoxy-1H,9H-diindolo[1,2,3-gh:3′,2′,1′-lm]pyrrolo[3,4-j][1,7]benzodiazonin-11-yl)methylamino]-3-oxopropyl]-carbamic acid, 1,1-dimethylethyl ester [124078-44-0] | 87 |  |

Second part, led by results:

| Flt3 Inhibition (percent inhibition of Flt3 kinase activity) (human Flt-3) [%] | Molecule | other results |
| --- | --- | --- |
| 89 | [9S-(9a,10b,13a)]-2,3,9,10,12,13-Hexahydro-10-hydroxy-9-methyl-9,13-epoxy-1H,11H-diindolo[1,2,3-gh:3′,2′,1′-lm]pyrrolo[3,4-j][1,7]benzodiazonine-1,11-dione, 11-oxime [187457-73-4] |  |
| 76 | [9a,10b,11b(S*),13a]-2-(Acetylamino)-2-deoxy-3-O-[1-[[(2,3,10,11,12,13-hexahydro-10-methoxy-9-methyl-1-oxo-9,13-epoxy-1H,9H-diindolo[1,2,3-gh:3′,2′,1′-lm]pyrrolo[3,4-j][1,7]benzodiazonin-11-yl)methylamino]carbonyl]propyl]-a-D-Glucopyranose [149622-60-6] |  |
| 43 | [9a,10b,11b(S*),13a]-phenylmethyl 2-(acetylamino)-2-deoxy-3-O-[1-[[(2,3,10,11,12,13-hexahydro-10-methoxy-9-methyl-1-oxo-9,13-epoxy-1H,9H-diindolo[1,2,3-gh:3′,2′,1′-lm]pyrrolo[3,4-j][1,7]benzodiazonin-11-yl)methylamino]carbonyl]propyl]-a-D-Glucopyranoside [149622-45-7] |  |
